Test results published in patent EP0726072A2, “Composition for the treatment of hypertension and congestive heart failure, containing an angiotensin II antagonist and an endopeptidase inhibitor” (BRISTOL-MYERS SQUIBB COMPANY, priority 1995, dated 1996).

Tested on: 1K1C hypertensive dogs
Assay: Haemodynamic, renal and hormonal effects in conscious 1-kidney-1-clip hypertensive dogs
Format: in vivo
Experimental: The studies described in this experiment were conducted in dogs that had been rendered hypertensive by prior unilateral nephrectomy and constriction of the remaining renal artery. This model is characterized by normal basal levels of plasma renin activity and is relatively resistant to the anti-hypertensive activity of angiotensin converting enzyme inhibitors and AT1 receptor antagonists.
The following experiments were conducted in fasted 1K1C hypertensive dogs lightly restrained in standard canine slings. An indwelling arterial catheter was accessed via a subcutaneous port for measurement of blood pressure via a Gould-Statham pressure transducer. Mean arterial pressure (MAP) was continuously recorded on a Gould chart writer and stored electronically using a Po-Ne-Mah data acquisition system. During each study, urine was collected at 20 minute intervals via a Foley bladder catheter for determination of urine volume. The concentrations of urinary sodium and potassium were measured using ion-selective electrodes and their rates of urinary excretion (µEq/min) were calculated. Glomerular filtration rate (GFR) and effective renal plasma flow (ERPF) were determined by the renal clearances of exogenous creatinine and para-aminohippuric acid (PAH), respectively. The concentrations of creatinine and PAH in sequential samples of urine and plasma were determined by spectrophotometric assays and the clearances were calculated by the standard formula.
Arterial blood samples were drawn at the end of the control period and at 60 minute intervals thereafter for determination of the plasma concentrations of atrial natriuretic peptide (ANP), cyclic GMP and plasma renin activity (PRA) by separate radioimmunoassays. The plasma and urine samples were preserved and the assays were conducted according to standard radioimmunoassay procedures. Urinary excretion rates of cyclic GMP and ANP were calculated and expressed as pmol/min and fmol/min, respectively.
In each study, baseline measurements were obtained during two 20 minute control periods. One of the treatments was then administered and sampling continued at 20 minute intervals for three hours.
To minimize inter-animal variability, each data point was expressed as the change from the average control value for that parameter. Significant differences among treatments were identified by analysis of variance for repeated measures. […] Results are given as mean ± SEM.

[1] = 20 min after treatment, 30 µmol/kg iv of each agent
[2] = 40 min after treatment, 30 µmol/kg iv of each agent
[3] = 60 min after treatment, 30 µmol/kg iv of each agent
[4] = 80 min after treatment, 30 µmol/kg iv of each agent
[5] = 100 min after treatment, 30 µmol/kg iv of each agent
[6] = 120 min after treatment, 30 µmol/kg iv of each agent
[7] = 140 min after treatment, 30 µmol/kg iv of each agent
[8] = 160 min after treatment, 30 µmol/kg iv of each agent
[9] = 180 min after treatment, 30 µmol/kg iv of each agent

## CCCCC1=NC2(CCCC2)C(=O)N1Cc1ccc(-c2ccccc2-c2nnn[nH]2)cc1 [BMS 186295, 2-butyl-6,7,8,9-tetrahydro-3-[[2'-(1H-tetrazol-5-yl)[1,1'-biphenyl]-4-yl]-methyl]-1,3-diazaspiro[4.4]nonan-4-one]
30 µmol/kg iv of each agent, cumulative over 3 hours
  increase in the amount of sodium excreted during the 3 hours after injection: 5.4±1.0 mEq/3 hr
[1]
  ANP Excretion, Change from control: -0.7 ± 0.5 fmol/min
  Cyclic GMP Excretion, Change from control: -372 ± 240 pmol/min
  Effective Renal Plasma Flow, Change from control: -68 ± 30 mL/min
  Glomerular Filtration Rate, Change from control: -4 ± 2 mL/min
  Mean Arterial Pressure, Change from control: -1±1 mm Hg
  Sodium Excretion, Change from control: 23±9 µEq/min
  Urine Volume, Change from control: 0.01 ± 0.07 mL/min
[2]
  ANP Excretion, Change from control: -0.6 ± 0.5 fmol/min
  Cyclic GMP Excretion, Change from control: -277 ± 255 pmol/min
  Effective Renal Plasma Flow, Change from control: -54 ± 35 mL/min
  Glomerular Filtration Rate, Change from control: -2 ± 5 mL/min
  Mean Arterial Pressure, Change from control: -10±1 mm Hg
  Sodium Excretion, Change from control: 41±13 µEq/min
  Urine Volume, Change from control: 0.09 ± 0.14 mL/min
[3]
  ANP Excretion, Change from control: -0.2 ± 0.3 fmol/min
  Cyclic GMP Excretion, Change from control: -150 ± 203 pmol/min
  Effective Renal Plasma Flow, Change from control: -35 ± 24 mL/min
  Glomerular Filtration Rate, Change from control: 6 ± 0 mL/min
  Mean Arterial Pressure, Change from control: -8±2 mm Hg
  Plasma Renin Activity, Change from control: 1.28±0.51 pmol AI/ml/hr
  Sodium Excretion, Change from control: 36±8 µEq/min
  Urine Volume, Change from control: 0.12 ± 0.07 mL/min
[4]
  ANP Excretion, Change from control: -0.4 ± 0.3 fmol/min
  Cyclic GMP Excretion, Change from control: -309 ± 199 pmol/min
  Effective Renal Plasma Flow, Change from control: -13 ± 9 mL/min
  Glomerular Filtration Rate, Change from control: 5 ± 2 mL/min
  Mean Arterial Pressure, Change from control: -5±2 mm Hg
  Sodium Excretion, Change from control: 27±6 µEq/min
  Urine Volume, Change from control: 0.05 ± 0.06 mL/min
[5]
  ANP Excretion, Change from control: -0.6 ± 0.4 fmol/min
  Cyclic GMP Excretion, Change from control: -266 ± 193 pmol/min
  Effective Renal Plasma Flow, Change from control: -1 ± 10 mL/min
  Glomerular Filtration Rate, Change from control: 3 ± 4 mL/min
  Mean Arterial Pressure, Change from control: -4±1 mm Hg
  Sodium Excretion, Change from control: 22±3 µEq/min
  Urine Volume, Change from control: -0.02 ± 0.09 mL/min
[6]
  ANP Excretion, Change from control: -0.5 ± 0.4 fmol/min
  Cyclic GMP Excretion, Change from control: -283 ± 236 pmol/min
  Effective Renal Plasma Flow, Change from control: -8 ± 17 mL/min
  Glomerular Filtration Rate, Change from control: 4 ± 3 mL/min
  Mean Arterial Pressure, Change from control: -1±2 mm Hg
  Plasma Renin Activity, Change from control: 1.49±0.57 pmol AI/ml/hr
  Sodium Excretion, Change from control: 30±4 µEq/min
  Urine Volume, Change from control: -0.02 ± 0.10 mL/min
[7]
  ANP Excretion, Change from control: -0.6 ± 0.4 fmol/min
  Cyclic GMP Excretion, Change from control: -449 ± 206 pmol/min
  Effective Renal Plasma Flow, Change from control: 8 ± 3 mL/min
  Glomerular Filtration Rate, Change from control: 0 ± 5 mL/min
  Mean Arterial Pressure, Change from control: -1±2 mm Hg
  Sodium Excretion, Change from control: 28±7 µEq/min
  Urine Volume, Change from control: -0.07 ± 0.12 mL/min
[8]
  ANP Excretion, Change from control: -0.5 ± 0.4 fmol/min
  Cyclic GMP Excretion, Change from control: -391 ± 199 pmol/min
  Effective Renal Plasma Flow, Change from control: -14 ± 12 mL/min
  Glomerular Filtration Rate, Change from control: 0 ± 7 mL/min
  Mean Arterial Pressure, Change from control: 0±2 mm Hg
  Sodium Excretion, Change from control: 30±7 µEq/min
  Urine Volume, Change from control: -0.07 ± 0.16 mL/min
[9]
  ANP Excretion, Change from control: -0.6 ± 0.4 fmol/min
  Cyclic GMP Excretion, Change from control: -611 ± 346 pmol/min
  Effective Renal Plasma Flow, Change from control: -12 ± 11 mL/min
  Glomerular Filtration Rate, Change from control: 0 ± 4 mL/min
  Mean Arterial Pressure, Change from control: -1±3 mm Hg
  Plasma Renin Activity, Change from control: 1.24±0.62 pmol AI/ml/hr
  Sodium Excretion, Change from control: 30±2 µEq/min
  Urine Volume, Change from control: -0.02 ± 0.07 mL/min
Control, before treatment
  ANP Excretion: 1.5 ± 0.6 fmol/min
  Cyclic GMP Excretion: 1122 ± 389 pmol/min
  Effective Renal Plasma Flow: 127 ± 41 mL/min
  Glomerular Filtration Rate: 45 ± 10 mL/min
  Mean Arterial Pressure: 157±7 mm Hg
  Plasma Renin Activity: 0.55±0.07 pmol AI/ml/hr
  Sodium Excretion: 18±2 µEq/min
  Urine Volume: 0.43 ± 0.16 mL/min
Summary of TABLE 2, 30 µmol/kg iv of each agent, 3 hours
  sodium excretion, effect in words: increased
Summary of TABLE 3, 30 µmol/kg iv of each agent, 3 hours
  urine volume, effect in words: increased
Summary of TABLE 6, 30 µmol/kg iv of each agent
  Urinary excretion of ANP, effect in words: did not affect
Summary of TABLE 8, 30 µmol/kg iv of each agent
  PRA, effect in words: significantly increased
Summary of Table 1, 30 µmol/kg iv of each agent, 3 hours
  mean arterial pressure (MAP), effect in words: signigicantly reduced
